Laboratory results: patent publication US8344010B2, “Fused imidazole derivatives as TRPV3 antagonist” (Glenmark Pharmaceuticals S.A., priority 2008, dated 2013)

Biological target: T1, Human TRPV3 (Homo sapiens, UniProt Q8NET8)
T1 construct: expressed in transfected cells; host or cells: CHO cells (selected with G-418)
T1 sequence (Q8NET8 1-790): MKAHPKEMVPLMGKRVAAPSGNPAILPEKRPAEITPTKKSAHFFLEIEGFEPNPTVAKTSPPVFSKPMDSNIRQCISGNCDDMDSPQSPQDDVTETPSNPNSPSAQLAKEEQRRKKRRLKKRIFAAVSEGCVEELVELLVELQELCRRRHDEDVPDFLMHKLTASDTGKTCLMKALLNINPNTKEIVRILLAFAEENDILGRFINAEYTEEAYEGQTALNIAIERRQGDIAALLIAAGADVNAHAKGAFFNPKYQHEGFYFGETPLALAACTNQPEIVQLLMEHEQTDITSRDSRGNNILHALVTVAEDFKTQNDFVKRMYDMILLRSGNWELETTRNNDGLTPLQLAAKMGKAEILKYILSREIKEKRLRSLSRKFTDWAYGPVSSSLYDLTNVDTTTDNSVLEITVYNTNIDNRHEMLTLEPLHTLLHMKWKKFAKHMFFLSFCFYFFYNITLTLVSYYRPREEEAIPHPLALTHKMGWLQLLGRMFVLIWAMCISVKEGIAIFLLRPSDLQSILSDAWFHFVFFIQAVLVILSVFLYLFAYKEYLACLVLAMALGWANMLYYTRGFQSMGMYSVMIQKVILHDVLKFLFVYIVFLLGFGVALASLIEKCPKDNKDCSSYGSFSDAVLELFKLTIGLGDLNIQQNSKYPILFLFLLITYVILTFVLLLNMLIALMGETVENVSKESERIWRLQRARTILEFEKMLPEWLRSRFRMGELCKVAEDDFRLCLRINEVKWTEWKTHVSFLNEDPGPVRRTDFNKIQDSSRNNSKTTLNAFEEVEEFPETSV
Assay: 45Calcium uptake assay: inhibition of 2-APB induced cellular uptake of radioactive calcium
Type: cell-based
Settings: human TRPV3 expressing CHO cells, 2-APB 500 μM; for inhibition at 1 µM: 1 μM test compound, read-out: Percentage Inhibition (1 μM); for inhibition at 10 µM: 10 μM test compound, read-out: Percentage Inhibition (10 μM); for IC50: class symbol
Outline: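 CHO cells expressing human TRPV3 were preincubated with compound for 10 min (0.5% DMSO final), then given 500 μM 2-APB plus 5 μCi/ml 45Ca2+ for 4 min. Lysate radioactivity was counted by scintillation; responses as % of maximal without antagonist, with IC50 by nonlinear regression.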

SMILES	inhibition at 1 µM [%]	inhibition at 10 µM [%]	IC50 [nM]
COc1cccc(/C=C/c2nc3ccccc3n2-c2ccc(C#N)cn2)c1OCc1ccccc1C#N [Example 15]	90.3	95.1	> 500
COc1ccccc1-n1c(/C=C/c2cccc(OC)c2OC2CCCC2)nc2ccccc21 [Example 32, 2-[(E)-2-(2-Cyclopentyloxy-3-methoxyphenyl)vinyl]-1-(2-methoxyphenyl)-1H-benzimidazole]	9.07	0	
COc1cccc(/C=C/c2nc3ccccc3n2-c2ccc(C#N)cn2)c1OCc1c(F)cccc1F [Example 17, 6-(2-{(E)-2-[2-(2,6-Difluorobenzyloxy)-3-methoxyphenyl]vinyl}-1H-benzimidazol-1-yl)nicotinonitrile]	84.3	95.8	100 to 500
COc1cccc(/C=C/c2nc3cc(Cl)c(Cl)cc3n2-c2ccc(C#N)cn2)c1OC1CCCC1 [Example 72, 6-{5,6-Dichloro-2-[(E)-2-(2-cyclopentyloxy-3-methoxyphenyl)vinyl]-1H-benzimidazol-1-yl}nicotinonitrile]	90.8	95.5	100 to 500
COc1cccc(/C=C/c2nc3ccccc3n2-c2ccc(C#N)cn2)c1OCc1ccc(F)cc1F [Example 18, 6-(2-{(E)-2-[2-(2,4-Difluorobenzyloxy)-3-methoxyphenyl]vinyl}-1H-benzimidazol-1-yl)nicotinonitrile]	94.2	97.3	100 to 500
COc1cccc(/C=C/c2nc3ccccc3n2Cc2ccc(C#N)cc2)c1OCc1ccccc1F [Example 44, 4-({2-[(E)-2-(2-{2-Fluorobenzyloxy}-3-methoxyphenyl)vinyl]-1H-benzimidazol-1-yl}methyl)benzonitrile]	60	87.1	
COc1cccc(/C=C/c2nc3cc(F)c(F)cc3n2-c2ccc(C#N)nn2)c1OC1CCCC1 [Example 76, 6-{2-[(E)-2-(2-Cyclopentyloxy-3-methoxyphenyl)vinyl]-5,6-difluoro-1H-benzimidazol-1-yl}pyridazine-3-carbonitrile]	96.3	97	100 to 500
COc1cccc(/C=C/c2nc3ccccc3n2-c2ncc(Cl)cc2Cl)c1OCc1ccccc1 [Example 5, 2-[(E)-2-(2-Benzyloxy-3-methoxyphenyl)vinyl]-1-(3,5-dichloropyridin-2-yl)-1H-benzimidazole]	38.8	69.3	
COc1cccc(/C=C/c2nc3ccccc3n2-c2ncc(Br)cn2)c1OC1CCCC1 [Example 23, 1-(5-Bromopyrimidin-2-yl)-2-[(E)-2-(2-cyclopentyloxy-3-methoxyphenyl)vinyl]-1H-benzimidazole]	56	84.5	
COc1cccc(/C=C/c2nc3ccccc3n2-c2ncccn2)c1OC1CCCC1 [Example 21]	13	81.9	
COc1cccc(/C=C/c2nc3cc(F)c(F)cc3n2-c2ncccc2C#N)c1OC1CCCC1 [Example 61, 2-{2-[(E)-2-(2-Cyclopentyloxy-3-methoxyphenyl)vinyl]-5,6-difluoro-1H-benzimidazol-1-yl}nicotinonitrile]	44.8	96	
CCCCCOc1c(/C=C/c2nc3cc(F)c(F)cc3n2-c2ccc(C#N)cn2)cccc1OC [Example 65, 6-{5,6-Difluoro-2-[(E)-2-(2-pentoxy-3-methoxyphenyl)vinyl]-1H-benzimidazol-1-yl}nicotinonitrile]	94.9	97.4	50 to 100

Now from value to molecule:

inhibition at 1 µM [%]	inhibition at 10 µM [%]	IC50 [nM]	SMILES
70.6	91.6	> 500	COc1cccc(/C=C/c2nc3ccccc3n2-c2ccc(C(F)(F)F)cn2)c1OCC1CC1 [Example 26]
57.7	86.5		COc1cccc(/C=C/c2nc3ccccc3n2Cc2ccc(F)cc2F)c1OCC1CC1 [Example 41, 1-(2,4-Difluorobenzyl)-2-[(E)-2-(2-cyclopropylmethoxy-3-methoxyphenyl)vinyl]-1H-benzimidazole]
48.3	59.2		COc1cccc(/C=C/c2nc3ccccc3n2-c2ccc(F)c(C#N)c2)c1OCC1CC1 [Example 38]
86.7	97.5	100 to 500	COc1cccc(/C=C/c2nc3ccccc3n2-c2ccc(C(F)(F)F)cn2)c1OC(C)C [Example 25, 2-[(E)-2-(2-Isopropoxy-3-methoxyphenyl)vinyl]-1-(5-trifluoromethylpyridin-2-yl)-1H-benzimidazole]
78.2	95.3	100 to 500	COc1cccc(/C=C/c2nc3ccccc3n2-c2ccc(C#N)cc2)c1OCC1CC1 [Example 33, 4-{2-[(E)-2-(2-Cyclopropylmethoxy-3-methoxyphenyl)vinyl]-1H-benzimidazol-1-yl}benzonitrile]
81.4	97.7	100 to 500	COc1cccc(/C=C/c2nc3ccccc3n2-c2ccc(C#N)cn2)c1OCC1CC1 [Example 12, 6-{2-[(E)-2-(2-[Cyclopropylmethoxy]-3-methoxyphenyl)vinyl]-1H-benzimidazol-1-yl}nicotinonitrile]
97.7	99	50 to 100	COc1cccc(/C=C/c2nc3ccccc3n2-c2ccc(C#N)cn2)c1OCc1ccccc1C(F)(F)F [Example 16, 6-{2-[(E)-2-(3-Methoxy-2-{[2-(trifluoromethyl)benzyl]oxy}phenyl)vinyl]-1H-benzimidazole-1-yl}nicotinonitrile]
78.8	93.6	100 to 500	COc1cccc(/C=C/c2nc3ccccc3n2-c2ncc(C(F)(F)F)cc2Cl)c1OC1CCCC1 [Example 29, 1-[3-Chloro-5-(trifluoromethyl)pyridin-2-yl]-2-[(E)-2-(2-cyclopentyloxy-3-methoxyphenyl)vinyl]-1H-benzimidazole]
74.2	96.6	100 to 500	COc1cccc(/C=C/c2nc3cccnc3n2-c2ccc(C#N)cn2)c1OCC1CC1 [Example 89, 6-{2-[(E)-2-(2-[Cyclopropylmethoxy]-3-methoxyphenyl)vinyl]-3H-imidazo[4,5-b]pyridin-3-yl}nicotinonitrile]
93	96.1	100 to 500	COc1cccc(/C=C/c2nc3cc(C(F)(F)F)ccc3n2-c2ccc(C#N)cn2)c1OC1CCCC1 [Example 57, 6-{2-[(E)-2-(2-[Cyclopentyloxy]-3-methoxyphenyl)vinyl]-5-(trifluoromethyl)-1H-benzimidazol-1-yl}nicotinonitrile]
60.2	87.3		COc1cccc(/C=C/c2nc3ccccc3n2Cc2ccc(C#N)cc2)c1OCC1CC1 [Example 42, 4-({2-[(E)-2-(2-Cyclopropylmethoxy-3-methoxyphenyl)vinyl]-1H-benzimidazol-1-yl}methyl)benzonitrile]
89.1	95.8	100 to 500	COc1cccc(/C=C/c2nc3ccccc3n2-c2ccc(C#N)cn2)c1OC1CCCC1 [Example 13, 6-{2-[(E)-2-(2-Cyclopentyloxy-3-methoxyphenyl)vinyl]-1H-benzimidazol-1-yl}nicotinonitrile]
16.4	27.5		COC(=O)c1ccc(-n2c(/C=C/c3cccc(OC)c3OC3CCCC3)nc3ccccc32)nc1 [Example 30, Methyl 6-(2-{(E)-2-[2-(Cyclopentyloxy)-3-methoxyphenyl]vinyl}-1H-benzimidazol-1-yl)nicotinate]
79.7	97.9	> 500	COc1cccc(/C=C/c2nc3ccccc3n2-c2ccc(C#N)cn2)c1OC(C)C [Example 9, 6-{2-[(E)-2-(2-Isopropoxy-3-methoxyphenyl)vinyl]-1H-benzimidazol-1-yl}nicotinonitrile]
26.1	46.6		COc1cccc(/C=C/c2nc3ccccc3n2-c2nc3ccccc3s2)c1OCC1CC1 [Example 50, 2-{2-[(E)-2-(2-Cyclopropylmethoxy-3-methoxyphenyl)vinyl]-1H-benzimidazol-1-yl}-1,3-benzothiazole]
50.9	81.7		COc1cccc(/C=C/c2nc3ccccc3n2-c2ccc([N+](=O)[O-])cn2)c1OC1CCCC1 [Example 4, 2-[(E)-2-(2-[Cyclopentyloxy]-3-methoxyphenyl)vinyl]-1-(5-nitropyridin-2-yl)-1H-benzimidazole]
